Data from US11590202B2, “Inhibitors of LTβR-NFκB signaling pathways for treating inflammation and cancer” (University of Maryland, Baltimore, priority 2017, dated 2023).
No end group written: not given here.

How the values were obtained:
Type in all cases: cell-based, mouse
[1] = tested on: LTβR-induced chemokines and cell adhesion molecules in LEC and SVEC4-10; experiment: LTβR-induced chemokine and adhesion molecule expression (qRT-PCR, ELISA, flow cytometry, immunohistochemistry); settings: LEC or SVEC4-10, anti-LTβR mAb (plus CL), peptides 20 μM; for LTβR-induced CCL2 expression/production: NIKi 50 μM, BAY11 25 μM
Procedure: LECs in PBS containing 0.2 mM calcium, 0.1 mM magnesium and 0.5% w/v BSA were treated with anti-CD16/32 (clone 93, eBioscience) to block Fc receptors, and then stained with antibodies to cell surface molecules in the same buffer. Flow cytometry antibodies used were: APC-eflour780-anti-mouse CD4 (GK1.5, eBioscience); PE-anti-mouse CD25 (PC61.5, eBioscience); APC-anti-mouse VCAM-1 (clone 647, eBioscience). For detection of LTα2β1, T cells were incubated with MOPC21 or LTβRIg at 2 μg/mL for 60 minutes at 37° C. in HBSS with 2% FBS. Cells were washed, and then stained for 45 minutes at 4° C. with BV421-rat anti-mouse IgG1 along with antibodies to other cell surface markers. Cells were then washed and fixed with 4% paraformaldehyde and run on an LSR Fortessa flow cytometer (BD Biosciences, San Jose, Calif.). Results were analyzed with software FlowJo 8.7 (Treestar).
(§1) One μg of total RNA extracted using Trizol reagent (Invitrogen) was reverse-transcribed into cDNA with GoScript™ Reverse Transcription System (Promega, Fitchburg, Wis.). mRNA expression levels were quantified by real-time PCR using SYBR Green Master Mix with an ABI Prism 7900HT (Applied Biosystems, Foster City, Calif.). Values for specific gene expression were normalized to house-keeping HPRT gene expression and were calculated as: 2^(Ct of HPRT-Ct specific gene). For the microarrays, total RNA of treated mLECs was extracted with RNeasy mini kit (Qiagen, Germantown, Md.) and analyzed for purity and integrity by capillary electrophoresis on an Agilent Bioanalyzer 2100 (Agilent Technologies, Inc. Santa Clara, Calif.). 100 ng/sample was subjected to amplification, followed by labeling and hybridization to Mouse Genome 430 2.0 GeneChips (Affymetrix, Santa Clara, Calif.). Sample amplification, labeling, hybridization, and detection were performed according to the manufacturer's protocols.
5×10^5 LECs or SVEC4-10 cells were plated in 12-well plates and treated with 20 μM peptides for 30 minutes at 37° C. Cells were then washed and incubated with anti-LTβR agonistic mAb (2 μg/mL) for 30 minutes at 4° C., followed by washing and then cross-linking with anti-rat IgG (2 μg/mL) for 6 or 16 hours at 37° C. The supernatants were collected and stored in −80° C. Mouse CCL2 and CCL21 were measured with ELISA kits from Biolegend, Inc. and R&D Systems (Minneapolis, Minn.), respectively.
(§2) LEC monolayers were stained for surface VCAM-1, LTβR or Lyve-1 with rat anti-mouse VCAM-1 (Clone 429, eBioscience), rat anti-mouse LTβR (Clone 3C8, eBioscience) or rabbit anti-mouse Lyve-1 (70R-LR003, Fitzgerald, Acton, Mass.), then were fixed for 20 minutes at 4° C. with 4% (w/v) paraformaldehyde (Affymetrix), permeabilized with PBS 0.2% (v/v) Triton X-100 (Sigma-Aldrich), and treated with 2% donkey serum for 10 minutes then incubated with rabbit anti-mouse CXCL12 (eBioscience), goat-anti-mouse CCL21 (Clone AF457, R&D System), or anti-NIK mouse monoclonal antibody (Clone A-12, Santa Cruz Biotechnology) overnight at 4° C. The primary antibodies were detected with Alexa Fluor […], 647 (Cy5), or 546 (Cy3)-conjugated donkey anti-goat, donkey anti-rabbit, or donkey anti-rat secondary antibodies (Jackson ImmunoResearch, West Grove, Pa.) for 1 hour at 4° C. Transwell membranes were transferred onto glass slides and visualized by fluorescent microscopy (Zeiss LSM 510 Meta, and LSMS Duo) with a ×60 or ×20 objective. Images were analyzed with Volocity version 6.3 software.

[2] = tested on: TNFR1-mediated VCAM-1 expression in LEC; experiment: TNFα-stimulated VCAM-1 expression in LEC (qRT-PCR); settings: LEC stimulated with TNFα for 1 hour
Procedure: as §1

[3] = tested on: LTβR complex (TRAF2, TRAF3); experiment: Co-immunoprecipitation of LTβR complex with anti-LTβR; settings: LEC pretreated, then anti-LTβR mAb for 10 minutes
Procedure: (§3) LECs were lysed in buffer containing 20 mM HEPES (pH 7.4), 150 mM NaCl, 10 mM NaF, 2 mM Na3VO4, 1 mM EDTA, 1 mM EGTA, 0.5% Triton X-100, 0.1 mM DTT, 1 mM PMSF and protease inhibitor cocktail (Roche, Indianapolis, Ind.). Protein in the cell extract was quantified using protein quantification kit (Bio-Rad, Philadelphia, Pa.) and 10 μg total protein was run on Novex™ WedgeWell™ 4-20% Tris-Glycine Mini Gels (Invitrogen) and transferred to an Immobilon-P membrane (Bio-Rad). Membranes were probed with anti-NF-κB2 p100/p52, NIK, phospho-IKKα/β(Ser176/180) (16A6), IκBα, TRAF2, TRAF3, and GAPDH antibodies. For co-IP assays, 500 μg total protein of cell extract was incubated with 1 μg of anti-mLTβR (5G11b) overnight, followed by 4 hour incubation with 25 μL protein G Agarose beads (Sigma-Aldrich). The beads were then washed with lysis buffer and boiled in 2× Laemmli sample buffer (Bio-Rad).

[4] = tested on: LTβR-NIK signaling in LEC and SVEC4-10; experiment: Immunohistochemistry of LTβR, NIK and RelB in LEC and SVEC4-10; settings: anti-LTβR for 6 hours
Procedure: as §2

[5] = tested on: LTβR-mediated non-classical NFκB (NIK) signaling in LEC and SVEC4-10; experiment: Immunoblot of non-classical NFκB (NIK) signaling after LTβR activation
Procedure: as §3

[6] = tested on: classical NFκB signaling in LEC; experiment: Immunoblot of classical NFκB signaling (IKKα/β phosphorylation, IκBα degradation); settings: 2 μg/mL anti-LTβR mAb or 20 ng/mL TNFα
Procedure: as §3

LEC = experiment: MTT viability assay; settings: 20 μM peptides, without or with anti-LTβR mAb
Procedure: LECs were plated into 24-well tissue culture plates, incubated overnight, and treated with 20 μM peptides with or without agonist anti-LTβR (2 μg/mL) for 4 hours, followed by 3 hour incubation with 0.5 mg/mL MTT (3-(4, 5-Dimethylthiazol-2-yl)-2, 5 diphenyl tetrazolium bromide) (Sigma-Aldrich). 50 μL DMSO was added to cells before reading OD at 540 nm.

[7] = pretreated with peptides or inhibitors, then anti-LTβR for 6 hours

Compound | LTβR-induced VCAM-1 expression [1] | LTβR-induced CCL2 expression/production [1] | TRAF2 recruitment to the LTβR complex [3] | TRAF3 recruitment to the LTβR complex [3] | NIK expression and co-localization with LTβR [4] | TRAF2 degradation [5, 7] | LEC viability (MTT) (LEC) | also measured
CC(C)(C)c1ccc(S(=O)(=O)/C=C/C#N)cc1 [BAY11-7085] | suppressed | suppressed | not BAY11-7085 was sufficient to inhibit | not BAY11-7085 was sufficient to inhibit | neither ciLT, BAY11-7085, nor NIKi affected | not BAY11-7085 also prevented | – | TNFR1-mediated VCAM-1 expression [2]: significantly inhibited
TNFα | – | – | – | – | – | – | – | early classical NFκB activation (IKKα/β phosphorylation, IκBα degradation) [6]: induced strong IKKα/β phosphorylation and IκBα degradation
CN[C@@H](C)C(=O)N[C@H]1CN(C(=O)CC(C)C)CC[C@H]2CC[C@@H](C(=O)NC(c3ccccc3)c3ccccc3)N2C1=O [AT406] | – | – | – | – | – | – | – | LTβR-mediated NIK accumulation and p100 processing ([5]; LEC and SVEC4-10, anti-LTβR mAb, 25 μM AT406): promoted more LTβR-mediated NIK accumulation and p100 processing
RQIKIWFQNRRMKWKKPEEGAPGP [ciLT] | – | – | – | – | – | – | did not affect | –
O=C1Cc2ccccc2C(=O)N1 [NIKi, 4H-isoquinoline-1,3-dione] | did not affect | partial inhibitory effect | blocked | blocked | neither ciLT, BAY11-7085, nor NIKi affected | inhibited TRAF2 degradation | – | LTβR-induced CCL21 transcription and production [1]: inhibited; p100 processing to p52 [5, 7]: prevented
RQIKIWFQNRRMKWKKTGNIYIYNGPVL [nciLT] | – | – | – | – | – | – | did not affect | –
